The nature of data set [1]: Accelerated ageing in neutral medium (phosphate buffer pH 7, 70° C.), HPLC of product remaining. It counts as physicochemical. Particulars: for half-life: phosphate buffer, read-out: half-life (time corresponding to 50% degradation) (converted). How it is done: (§1) The stability of the compounds of the invention and aspartame was measured by determining, using high performance liquid chromatography (HPLC), the amount of product remaining after an accelerated ageing in acidic medium (phosphate buffer at pH 3) or in neutral medium (phosphate buffer at pH 7) and at the temperature of 70° C. The stability of the compound thus tested is evaluated by its half-life (time corresponding to 50% degradation).
Given in the annexed FIG. 2 is a comparative diagram of the stability curves of aspartame (curve 1) and of the N-(3,3-dimethylbutyl)-L-aspartyl-D-α-aminobutyric acid N--(S)-1-phenyl-1-propanamide of the invention (curve 2) obtained during an accelerated ageing by heating their solutions in neutral media of pH 7 at 70° C.

Data set [2] is described as follows: Sweetening potency: taste comparison of aqueous solutions with sucrose control solution (2%, 5% or 10%) by a group of eight experienced people. It counts as in vivo. From the text: The sweetening potency of the compounds described in the examples has been evaluated by a group of eight experienced people. For this, the compound, in aqueous solution at varying concentrations, is compared, with respect to taste, to a control solution of sucrose of concentration 2%, 5%, or 10%. The sweetening potency of the test compound compared with sucrose then corresponds to the weight ratio between the compound and sucrose for equal sweetening intensity, i.e. when the sweet tastes of the solution of the test compound and the control solution of sucrose are considered by a majority of people to have the same sweetening intensity.

Data set [3] can be described thus: Accelerated ageing in acidic medium (phosphate buffer pH 3, 70° C.), HPLC of product remaining. It counts as physicochemical. Particulars: aqueous solution, read-out: half-life (time corresponding to 50% degradation) (converted). The procedure: as §1
Given in the annexed FIG. 1 is a comparative diagram of the stability curves of aspartame (curve 1) and of the N--(3,3-dimethylbutyl)-L-aspartyl-D-α-aminobutyric acid N--(S)-1-phenyl-1-propanamide of the present invention (curve 2) obtained during an accelerated ageing by heating their solutions in acidic medium at pH 3 (phosphate buffer) at 70° C.

Data set [4] can be described thus: Sweetening comparison with aspartame (equivalent sweetness of solutions / soft drink). The data set is classed as in vivo. The note with it: for concentration of aqueous solution of equivalent sweetening potency: 20 mg/L compound equivalent to 550 mg/L aspartame; for quantity of sweetening agent in one liter of soft drink for replacement: identical organoleptic qualities. How it is done: From the fact of their high sweetening potency, another advantage of the compounds of the invention compared to aspartame is to allow, in their application to food products, the use of very low quantities of active agent. It is therefore for example that it is possible to replace, in one liter of soft drink, 550 mg of aspartame by about 20 mg of the N-(3,3-dimethylbutyl)-L-aspartyl-D-α-aminobutyric acid N--(S)-1-phenyl-1-propanamide of the invention, and to therefore reduce by about 27 times the quantities of sweetening agent consumed, always in maintaining the identical organoleptic qualities.

For data set [5] the following is noted: cited from earlier work.
The mark [6] stands for this setting: with respect to a 2% sucrose solution.

Residues, ends and D or L forms follow the SMILES beside them.

Usually half-life stands for how long it takes for the measured level to halve.

With `CC[C@H](NC(=O)[C@@H](CC)NC(=O)[C@H](CC(=O)O)NCCC(C)(C)C)c1ccccc1` [N-(3,3-dimethylbutyl)-L-aspartyl-D-α-aminobutyric acid N--(S)-1-phenyl-1-propanamide], the “stability compared with aspartame” value in data set [1] (pH 7, 70° C., ratio to aspartame) was “about 1,700 times”. Further, the half-life in data set [1] (pH 7, 70° C.) was about 288 h; in data set [3], about 72 h. In addition, the Sweetening potency in data set [2] (by comparison with a 5% solution of sucrose) is listed as ~6,000 times that of sucrose on a wei; in data set [2] (by comparison with a 10% solution of sucrose) it was ~5,000 times that of sucrose on a wei; in data set [2] (with respect to a 2% sucrose solution, listed as Y = C2 H5, R" = (S) CH(C2 H5) C6 H5) it was 8,000 times that of sucrose on a wei. Further, in data set [4], the “concentration of aqueous solution of equivalent sweetening potency” value stood at 20 µg/mL. The “sweetening potency compared with aspartame” value in data set [4] (20 mg/L of compound vs 550 mg/L of aspartame, aqueous solution) is given as “about 27 times”. For the same compound, the “quantity of sweetening agent in one liter of soft drink for replacement” value in data set [4] is “about 20 mg”. Besides, the “reduction of quantity of sweetening agent consumed vs aspartame” value in data set [4] (soft drink, vs aspartame) is listed as “about 27 times”.
On to `CC[C@@H](NC(=O)[C@H](CC(=O)O)NCCC(C)(C)C)C(=O)N[C@@H](COC)c1ccccc1` [N-(3,3-dimethylbutyl)-L-aspartyl-D-α-aminobutyric acid N--(S)-1-phenyl-2-methoxy-1-ethanamide], for which the Sweetening potency entry is “about 4,000 times that of sucrose on a weight basis” in data set [2] (setting [6]) and 4,000 times that of sucrose on a wei in data set [2] (with respect to a 2% sucrose solution, listed as Y = C2 H5, R" = (R) CH(CH2 OCH3)C6 H5).
As for `CC[C@H](NC(=O)[C@H](NC(=O)[C@H](CC(=O)O)NCCC(C)(C)C)C(C)C)c1ccccc1` [N-(3,3-dimethylbutyl)-L-aspartyl-D-valine N--(S)-1-phenyl-1-propanamide], the Sweetening potency entry in data set [2] (setting [6]) was “about 3,000 times that of sucrose on a weight basis”; in data set [2] (with respect to a 2% sucrose solution, listed as Y = (CH3)2 CH, R" = (S) CH(C2 H5) C6 H5) it was 3,000 times that of sucrose on a wei.
In the case of `C[C@@H](NC(=O)[C@H](CC(=O)O)NCCC(C)(C)C)C(=O)NC(C1CC1)C1CC1` [N-(3,3-dimethylbutyl)-L-aspartyl-N-(dicyclopropylcarbinyl)-D-alaninamide], in data set [5] (setting [6]), the “sweetening potency (prior art, FR 92 13615)” value is given as 2,500 times that of sucrose on a weight basis.
For the compound `CC[C@@H](NC(=O)[C@H](CC(=O)O)NCCC(C)(C)C)C(=O)N[C@@H](C)c1ccccc1` [Y = C2 H5, R" = (S) CH(CH3)C6 H5], in data set [2] (setting [6]), the Sweetening potency is reported as 2,000 times that of sucrose on a wei.
On to `COC(=O)[C@H](Cc1ccccc1)NC(=O)[C@@H](N)CC(=O)O` [aspartame, L-aspartyl-L-phenylalanine methyl ester, reference compound] (HELM PEPTIDE1{D.F.[CO[*:1]]}$$$$V2.0), for which the “stability in neutral solution” value in data set [1] (neutral solution, pH about 7) is “very little stable”. Also, the half-life in data set [1] (pH 7, 70° C.) was 0.167 h; in data set [3], about 24 h. The “concentration of aqueous solution of equivalent sweetening potency” value in data set [4] was 550 µg/mL. In data set [4], the “quantity of sweetening agent in one liter of soft drink for replacement” value was found to be 550 mg. The “sweetening potency (prior art)” value in data set [5] (aspartame, background, sucrose concentration not stated) was 120 to 180 times that of sucrose on a weight basis.
Take `COC[C@H](NC(=O)[C@H](NC(=O)[C@H](CC(=O)O)NCCC(C)(C)C)C(C)C)c1ccccc1` [N-(3,3-dimethylbutyl)-L-aspartyl-D-valine N--(S)-1-phenyl-2-methoxy-1-ethanamide]: the Sweetening potency result in data set [2] (setting [6]) is on record as “about 4,000 times that of sucrose on a weight basis”; in data set [2] (with respect to a 2% sucrose solution, listed as Y = (CH3)2 CH, R" = (R) CH(CH2 OCH3)C6 H5) it was 4,000 times that of sucrose on a wei.

Values taken from patent publication US5997933A, “N-(3,3-dimethylbutyl)-L-aspartyl-D-α-aminoalkanoic acid N-(S)-1-phenyl-1-alkanamide useful as a sweetening agent” (priority 1996, dated 1999).
